Where “and” joins values, the source holds several entries; their conditions need not be identical. Equal values may be shown once. Read-outs that look alike come from different tables or passages of the source.
Legend:
HT1080 cells = assay: Ferroptosis inducers (FINs)/ferroptocide, 7-AAD/annexin V flow cytometry; format: cell-based, human; conditions: for double-negative events (7-AAD/annexin V): alone (DMSO) or with Fer-1 1 µM
RIPK1 = assay: Western blot of pRIPK1 (S166) in TSZ-treated HT29 cells; format: cell-based, human; conditions: Nec-1s 10 µM, Fer-1 1 µM, Nec-1f 10 µM
Method: To induce necroptosis in a human cell line, HT29 cells were stimulated at the indicated time points with 20 ng/ml human TNFα (Biolegend), 1 μM SMAC-mimetics (Birinapant, Chemietek), and 20 μM zVAD-fmk (Selleckchem, herein referred to as zVAD). For the induction of necroptosis in NIH3T3 cells, cells were incubated with 20 ng/ml TNF-α and 20 μM zVAD for indicated time points. […] Cells were seeded in six-well plates or petri dishes. […] After indicated time points, cells were collected and prepared for flow cytometry, immunoblotting, and/or LDH release assays.
Cells were lysed in ice-cold 10 mM Tris-HCl, pH 7.5, 50 mM NaCl, 1% Triton X-100, 30 mM sodium pyrophosphate, 50 mM NaF, 100 μM Na3VO4, 2 μM ZnCl2, and 1 mM phenylmethylsulfonyl fluoride (PMSF, modified Frackelton buffer) for 30 min on ice. Insoluble material was removed by centrifugation (14 000×g, 30 min, 4 °C). Protein concentration was determined using a commercial Bradford assay kit according to the manufacturer’s instructions (Thermo Fisher). Equal amounts of protein (typically 30 μg per lane) were resolved on a 4%−15% gradient SDS/PAGE gel and transferred to a PVDF membrane (BIO-RAD). Primary antibody incubation was performed for anti-pS166-RIPK1 (Cell Signaling, Cat# 65746, 1:1000 dilution), anti-pS358-MLKL, (Abcam, ab187091, 1:1000 dilution), anti-MLKL (Genetex, GTX107538, 1:1000 dilution) and anti-β-Actin (Cell Signaling, Cat# 3700S, 1:1000 dilution). Secondary antibodies (anti-mouse, HRP-linked antibody, Cell Signaling, Cat# 7076S; anti-rabbit, HRP-linked antibody, Cell Signaling, Cat# 7074S) were applied at concentrations of 1:5.000 (also see Supplementary Table 1 for details). Proteins were then visualized by enhanced chemiluminescence (ECL; Amersham Biosciences).

[1] = Pharmacokinetic analysis of Nec-1f in mice (tissue PK); format: in vivo, C57BL/6 mice; conditions: individual mice; for concentration at 120 min: sample collection 120 min

CN1C(=O)C(Cc2c[nH]c3c(Cl)cccc23)NC1=S (centres unmarked) [Nec-1f]
Prevention of FINO2-induced ferroptosis (HT1080 cells; HT1080): less effective
double-negative events (7-AAD/annexin V) (HT1080 cells; HT1080, 1.13 µM RSL3 6 h, Nec-1s 30 µM, Nec-1f 30 µM): 88% and 71.9% and 83.1% and 89.5%
double-negative events (7-AAD/annexin V) (HT1080 cells; HT1080, 10 µM FIN56 24 h, Nec-1s 30 µM, Nec-1f 30 µM): 82.6% and 86.1% and 84.4%
double-negative events (7-AAD/annexin V) (HT1080 cells; HT1080, 10 µM FINO2 24 h, Nec-1s 30 µM, Nec-1f 30 µM): 80.8% and 51.5% and 65.9% and 53.8%
Inhibition of cell death induction by FINs/ferroptocide (HT1080 cells; HT1080, Fer-1 1 µM, Nec-1s 30 µM, Nec-1f 30 µM): inhibition of cell death induction
Phosphorylation of RIPK1 at S166, western blot (RIPK1): prevented phosphorylation at S166 in RIPK1
concentration in blood ([1]; sample collection 240 min): 0 ng/mL
concentration in blood ([1]; sample collection 360 min): 0 ng/mL
concentration in blood ([1]; sample collection 480 min): 0 ng/mL
concentration in blood ([1]; sample collection 1440 min): 0 ng/mL
concentration in brain ([1]; brain, sample collection 240 min): 0 ng/mL
concentration in brain ([1]; brain, sample collection 360 min): 0 ng/mL
concentration in brain ([1]; brain, sample collection 480 min): 0 ng/mL
concentration in brain ([1]; brain, sample collection 1440 min): 0 ng/mL
concentration in heart ([1]; heart, sample collection 0 min): 0 ng/mL
concentration in heart ([1]; heart, sample collection 240 min): 0 ng/mL
concentration in heart ([1]; heart, sample collection 360 min): 0 ng/mL
concentration in heart ([1]; heart, sample collection 480 min): 0 ng/mL
concentration in heart ([1]; heart, sample collection 1440 min): 0 ng/mL
concentration in kidney ([1]; kidney, sample collection 0 min): 0 ng/mL
concentration in kidney ([1]; kidney, sample collection 240 min): 0 ng/mL
concentration in kidney ([1]; kidney, sample collection 360 min): 0 ng/mL
concentration in kidney ([1]; kidney, sample collection 480 min): 0 ng/mL
concentration in kidney ([1]; kidney, sample collection 1440 min): 0 ng/mL
concentration in liver ([1]; sample collection 0 min): 0 ng/mL
concentration in liver ([1]; sample collection 240 min): 0 ng/mL
concentration in liver ([1]; sample collection 360 min): 0 ng/mL
concentration in liver ([1]; sample collection 480 min): 0 ng/mL
concentration in liver ([1]; sample collection 1440 min): 0 ng/mL
concentration in lung ([1]; sample collection 0 min): 0 ng/mL
concentration in lung ([1]; sample collection 240 min): 0 ng/mL
concentration in lung ([1]; sample collection 360 min): 0 ng/mL
concentration in lung ([1]; sample collection 480 min): 0 ng/mL
concentration in lung ([1]; sample collection 1440 min): 0 ng/mL
concentration at 240 min ([1]; male, C57BL/6, mouse, brain, intraperitoneal, 2 mg/kg, brain, sample collection 240 min, read-out: concentration in brain): 0 ng/mL
concentration at 360 min ([1]; male, C57BL/6, mouse, brain, intraperitoneal, 2 mg/kg, brain, sample collection 360 min, read-out: concentration in brain): 0 ng/mL
concentration at 480 min ([1]; male, C57BL/6, mouse, brain, intraperitoneal, 2 mg/kg, brain, sample collection 480 min, read-out: concentration in brain): 0 ng/mL
concentration at 0 min ([1]; male, C57BL/6, mouse, brain, intraperitoneal, 2 mg/ml, brain, sample collection 0 min, read-out: concentration in brain): 0 ng/mL
concentration at 5 min ([1]; male, C57BL/6, mouse, brain, intraperitoneal, 2 mg/ml, brain, sample collection 5 min, read-out: concentration in brain): 11 ng/mL
concentration at 15 min ([1]; male, C57BL/6, mouse, brain, intraperitoneal, 2 mg/ml, brain, sample collection 15 min, read-out: concentration in brain): 23 ng/mL
concentration at 120 min ([1]; male, C57BL/6, mouse, brain, intraperitoneal, 2 mg/ml, brain, read-out: concentration in brain): 11 ng/mL
concentration at 1440 min ([1]; male, C57BL/6, mouse, brain, intraperitoneal, 2 mg/ml, brain, sample collection 1440 min, read-out: concentration in brain): 0 ng/mL
concentration at 240 min ([1]; male, C57BL/6, mouse, heart, intraperitoneal, 2 mg/kg, heart, sample collection 240 min, read-out: concentration in heart): 0 ng/mL
concentration at 360 min ([1]; male, C57BL/6, mouse, heart, intraperitoneal, 2 mg/kg, heart, sample collection 360 min, read-out: concentration in heart): 0 ng/mL
concentration at 480 min ([1]; male, C57BL/6, mouse, heart, intraperitoneal, 2 mg/kg, heart, sample collection 480 min, read-out: concentration in heart): 0 ng/mL
concentration at 1440 min ([1]; male, C57BL/6, mouse, heart, intraperitoneal, 2 mg/kg, heart, sample collection 1440 min, read-out: concentration in heart): 0 ng/mL
concentration at 0 min ([1]; male, C57BL/6, mouse, heart, intraperitoneal, heart, sample collection 0 min, read-out: concentration in heart): 0 ng/mL
concentration at 120 min ([1]; male, C57BL/6, mouse, heart, intraperitoneal, heart, read-out: concentration in heart): 0 ng/mL
concentration at 240 min ([1]; male, C57BL/6, mouse, kidney, intraperitoneal, 2 mg/kg, kidney, sample collection 240 min, read-out: concentration in kidney): 0 ng/mL
concentration at 360 min ([1]; male, C57BL/6, mouse, kidney, intraperitoneal, 2 mg/kg, kidney, sample collection 360 min, read-out: concentration in kidney): 0 ng/mL
concentration at 480 min ([1]; male, C57BL/6, mouse, kidney, intraperitoneal, 2 mg/kg, kidney, sample collection 480 min, read-out: concentration in kidney): 0 ng/mL
concentration at 1440 min ([1]; male, C57BL/6, mouse, kidney, intraperitoneal, 2 mg/kg, kidney, sample collection 1440 min, read-out: concentration in kidney): 0 ng/mL
concentration at 0 min ([1]; male, C57BL/6, mouse, kidney, intraperitoneal, 2 mg/ml, kidney, sample collection 0 min, read-out: concentration in kidney): 0 ng/mL
